The numbers were not newly measured in patent publication US8796195B2 (priority 2007, dated 2014), which cites them from elsewhere.

For data set [1] the following is noted: based on 48% tetrafluoroboric acid.

Structures are written as SMILES. Several values for one entry are separate records, joined by “and”; a condition that tells them apart may be missing. Equal entries are not always repeated.

In general, pKa refers to the pH at which an ionisable group is half protonated. `F` [HF, hydrofluoric acid]: the pKa was 3.4 and ~3.5.
For `F[B-](F)(F)F.[H+]` [Tetrafluoroboric acid, tetrafluoroboric acid], the pKa entry was “approximately −3”. For the same compound, in data set [1], the “LD50 (toxic by ingestion)” value is 100 to 464 mg/kg.
